The target in experiment [1] is Mitogen-activated protein kinase 8 (Homo sapiens, UniProt P45983). As to conditions: at 10 µM.
In experiment [2] the target is Fibroblast growth factor receptor 2 (Homo sapiens) (UniProt P21802). As to the kind of experiment: Selectivity interaction (KinomeScan (DiscoverX)) EUB0000695a FGFR2. Particulars: at 100 nM.
Experiment [3] addresses Cyclin-dependent kinase 17 (Homo sapiens) (UniProt Q00537). Kind of experiment: Selectivity interaction (KinomeScan (DiscoverX)) EUB0000666a CDK17. As to conditions: at 10 µM.
Experiment [4] addresses Insulin receptor-related protein (Homo sapiens) (UniProt P14616). Particulars: at 10 µM.
Experiment [5] addresses Casein kinase I isoform alpha (Homo sapiens, UniProt P48729). As to conditions: at 10 µM.
Experiment [6] concerns the target T1, Serine/threonine-protein kinase D1 (Homo sapiens) (UniProt Q15139).
T1 sequence (whole entry): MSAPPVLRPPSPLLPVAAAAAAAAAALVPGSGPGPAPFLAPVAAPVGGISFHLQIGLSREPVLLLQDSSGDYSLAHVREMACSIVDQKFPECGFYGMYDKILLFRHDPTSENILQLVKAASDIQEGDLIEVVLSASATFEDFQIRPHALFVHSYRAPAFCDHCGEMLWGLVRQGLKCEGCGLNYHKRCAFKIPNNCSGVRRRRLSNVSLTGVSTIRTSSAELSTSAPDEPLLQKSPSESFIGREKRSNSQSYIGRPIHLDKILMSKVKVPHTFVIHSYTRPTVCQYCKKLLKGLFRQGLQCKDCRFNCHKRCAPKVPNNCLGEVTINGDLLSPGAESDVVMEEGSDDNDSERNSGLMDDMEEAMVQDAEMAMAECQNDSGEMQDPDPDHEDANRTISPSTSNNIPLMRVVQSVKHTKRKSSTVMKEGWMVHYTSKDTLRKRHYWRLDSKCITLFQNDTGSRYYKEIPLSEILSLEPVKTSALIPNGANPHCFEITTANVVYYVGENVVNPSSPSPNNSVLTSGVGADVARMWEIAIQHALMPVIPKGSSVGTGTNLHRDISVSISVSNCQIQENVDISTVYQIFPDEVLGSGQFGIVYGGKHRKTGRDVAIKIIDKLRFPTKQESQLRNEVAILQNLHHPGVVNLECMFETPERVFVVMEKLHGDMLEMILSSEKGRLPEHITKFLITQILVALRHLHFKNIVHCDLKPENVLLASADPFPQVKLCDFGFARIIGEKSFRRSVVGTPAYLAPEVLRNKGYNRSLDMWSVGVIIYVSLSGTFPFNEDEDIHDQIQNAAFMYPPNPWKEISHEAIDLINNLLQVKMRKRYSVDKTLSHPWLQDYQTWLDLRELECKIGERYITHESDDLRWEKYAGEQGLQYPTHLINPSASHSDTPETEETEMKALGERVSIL
Kind of experiment: Selectivity interaction (Kinase screening (Nanosyn)) EUB0000604a PRKD1.

The target of experiment [7] is T2, Beta-adrenergic receptor kinase 1 (Homo sapiens) (UniProt P25098).
T2 sequence (whole entry): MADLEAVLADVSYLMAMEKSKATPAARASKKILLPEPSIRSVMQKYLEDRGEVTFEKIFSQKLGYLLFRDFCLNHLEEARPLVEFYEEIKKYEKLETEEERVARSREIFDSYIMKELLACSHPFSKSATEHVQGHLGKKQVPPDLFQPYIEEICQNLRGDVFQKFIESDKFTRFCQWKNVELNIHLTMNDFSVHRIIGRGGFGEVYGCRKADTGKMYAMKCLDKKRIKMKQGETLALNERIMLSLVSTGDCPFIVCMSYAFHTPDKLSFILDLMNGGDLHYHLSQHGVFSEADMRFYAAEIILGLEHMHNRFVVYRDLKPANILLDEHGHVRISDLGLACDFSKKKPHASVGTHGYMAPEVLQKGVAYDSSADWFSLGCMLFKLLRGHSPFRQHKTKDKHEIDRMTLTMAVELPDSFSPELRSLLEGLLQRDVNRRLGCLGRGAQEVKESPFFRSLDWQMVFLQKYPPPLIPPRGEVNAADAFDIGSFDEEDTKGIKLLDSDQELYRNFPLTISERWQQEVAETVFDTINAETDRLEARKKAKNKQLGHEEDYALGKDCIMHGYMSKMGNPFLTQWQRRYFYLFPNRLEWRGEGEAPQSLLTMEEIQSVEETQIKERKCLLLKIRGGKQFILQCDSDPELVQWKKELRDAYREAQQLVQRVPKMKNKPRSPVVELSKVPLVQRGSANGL
Kind of experiment: Selectivity interaction (Kinase panel (Invitrogen)) EUB0000639a ADRBK1. Particulars: at 200 nM.

For experiment [8], the target named is T3, Receptor-interacting serine/threonine-protein kinase 4 (Homo sapiens) (UniProt P57078).
T3 sequence (whole entry): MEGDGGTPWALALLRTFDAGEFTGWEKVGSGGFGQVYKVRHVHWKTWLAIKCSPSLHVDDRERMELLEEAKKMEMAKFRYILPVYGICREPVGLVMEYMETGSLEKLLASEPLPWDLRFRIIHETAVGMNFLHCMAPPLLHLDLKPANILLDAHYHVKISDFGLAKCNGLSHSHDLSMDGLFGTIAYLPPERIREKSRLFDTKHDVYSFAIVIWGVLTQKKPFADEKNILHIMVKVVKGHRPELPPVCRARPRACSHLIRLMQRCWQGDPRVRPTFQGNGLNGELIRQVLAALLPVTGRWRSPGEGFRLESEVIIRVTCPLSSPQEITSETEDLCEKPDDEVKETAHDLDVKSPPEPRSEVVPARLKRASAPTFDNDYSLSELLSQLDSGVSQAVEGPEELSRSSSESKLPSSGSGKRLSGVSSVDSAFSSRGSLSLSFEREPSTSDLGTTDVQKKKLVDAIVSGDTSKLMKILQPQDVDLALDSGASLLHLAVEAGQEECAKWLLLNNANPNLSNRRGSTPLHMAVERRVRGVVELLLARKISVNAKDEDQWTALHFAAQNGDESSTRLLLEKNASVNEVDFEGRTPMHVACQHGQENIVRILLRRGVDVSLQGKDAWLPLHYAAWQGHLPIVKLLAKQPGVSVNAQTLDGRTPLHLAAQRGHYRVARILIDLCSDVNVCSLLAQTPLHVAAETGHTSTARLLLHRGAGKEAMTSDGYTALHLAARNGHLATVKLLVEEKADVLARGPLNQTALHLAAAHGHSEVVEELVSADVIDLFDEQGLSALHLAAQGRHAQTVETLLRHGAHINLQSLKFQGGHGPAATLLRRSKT
As to the kind of experiment: Selectivity interaction (KinomeScan (DiscoverX)) EUB0000045b RIPK4.

Experiment [9] has as its target Mitogen-activated protein kinase 6 (Homo sapiens) (UniProt Q16659). As to the kind of experiment: Selectivity interaction (KinomeScan (DiscoverX)) EUB0000655a MAPK6. As to conditions: at 10 µM.
The target in experiment [10] is MAP/microtubule affinity-regulating kinase 3 (Homo sapiens) (UniProt P27448). Kind of experiment: Selectivity interaction (Kinase panel (DSF assay)) EUB0001558a MARK3. A general note: DSF heats the sample and reads unfolding from a dye or from intrinsic fluorescence.
Chain of MAP/microtubule affinity-regulating kinase 3 (Homo sapiens) (P27448 whole entry, looked up): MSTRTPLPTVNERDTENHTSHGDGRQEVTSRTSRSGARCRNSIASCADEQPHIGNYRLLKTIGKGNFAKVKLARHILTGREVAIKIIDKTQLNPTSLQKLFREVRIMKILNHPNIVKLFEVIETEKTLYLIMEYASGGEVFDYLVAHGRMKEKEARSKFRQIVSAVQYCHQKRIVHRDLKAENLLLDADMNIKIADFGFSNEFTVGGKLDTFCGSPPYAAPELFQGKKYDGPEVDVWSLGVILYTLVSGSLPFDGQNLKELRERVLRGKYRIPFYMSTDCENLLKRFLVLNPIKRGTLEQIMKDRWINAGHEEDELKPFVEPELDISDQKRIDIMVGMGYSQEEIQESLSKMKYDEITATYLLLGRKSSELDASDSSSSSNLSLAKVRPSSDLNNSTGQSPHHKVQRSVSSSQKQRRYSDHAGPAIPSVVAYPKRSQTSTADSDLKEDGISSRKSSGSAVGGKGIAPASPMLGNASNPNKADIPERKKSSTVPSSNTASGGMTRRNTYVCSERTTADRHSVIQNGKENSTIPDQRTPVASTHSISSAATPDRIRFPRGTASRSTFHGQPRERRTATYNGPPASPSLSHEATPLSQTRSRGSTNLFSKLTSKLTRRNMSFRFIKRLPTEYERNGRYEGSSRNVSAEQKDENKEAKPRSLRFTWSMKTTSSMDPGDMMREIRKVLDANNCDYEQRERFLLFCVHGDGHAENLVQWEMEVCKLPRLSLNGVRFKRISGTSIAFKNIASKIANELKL

Chain of Fibroblast growth factor receptor 2 (Homo sapiens) (P21802 22-821 limits assumed): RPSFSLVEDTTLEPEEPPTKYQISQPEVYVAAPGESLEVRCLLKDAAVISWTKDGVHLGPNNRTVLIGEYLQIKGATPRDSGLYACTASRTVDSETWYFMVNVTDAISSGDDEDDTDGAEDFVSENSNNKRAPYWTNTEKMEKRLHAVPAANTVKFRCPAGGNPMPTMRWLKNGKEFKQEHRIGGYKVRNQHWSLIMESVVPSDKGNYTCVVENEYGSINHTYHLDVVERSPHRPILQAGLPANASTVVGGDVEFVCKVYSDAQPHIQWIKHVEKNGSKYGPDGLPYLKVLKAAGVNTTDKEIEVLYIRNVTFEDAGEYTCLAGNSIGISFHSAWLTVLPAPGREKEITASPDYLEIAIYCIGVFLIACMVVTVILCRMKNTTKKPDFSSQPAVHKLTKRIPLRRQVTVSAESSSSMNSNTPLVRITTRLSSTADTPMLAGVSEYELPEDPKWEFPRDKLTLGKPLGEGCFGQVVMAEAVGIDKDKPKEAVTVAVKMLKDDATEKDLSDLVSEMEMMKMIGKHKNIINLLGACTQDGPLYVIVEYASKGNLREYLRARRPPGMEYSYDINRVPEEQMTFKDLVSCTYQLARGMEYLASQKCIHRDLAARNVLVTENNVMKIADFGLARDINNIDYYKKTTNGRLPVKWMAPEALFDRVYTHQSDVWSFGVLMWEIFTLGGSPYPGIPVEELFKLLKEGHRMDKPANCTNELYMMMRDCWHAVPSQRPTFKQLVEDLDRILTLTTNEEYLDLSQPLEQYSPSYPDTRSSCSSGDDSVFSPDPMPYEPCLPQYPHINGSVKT
Chain of Cyclin-dependent kinase 17 (Homo sapiens) (Q00537 whole entry, looked up): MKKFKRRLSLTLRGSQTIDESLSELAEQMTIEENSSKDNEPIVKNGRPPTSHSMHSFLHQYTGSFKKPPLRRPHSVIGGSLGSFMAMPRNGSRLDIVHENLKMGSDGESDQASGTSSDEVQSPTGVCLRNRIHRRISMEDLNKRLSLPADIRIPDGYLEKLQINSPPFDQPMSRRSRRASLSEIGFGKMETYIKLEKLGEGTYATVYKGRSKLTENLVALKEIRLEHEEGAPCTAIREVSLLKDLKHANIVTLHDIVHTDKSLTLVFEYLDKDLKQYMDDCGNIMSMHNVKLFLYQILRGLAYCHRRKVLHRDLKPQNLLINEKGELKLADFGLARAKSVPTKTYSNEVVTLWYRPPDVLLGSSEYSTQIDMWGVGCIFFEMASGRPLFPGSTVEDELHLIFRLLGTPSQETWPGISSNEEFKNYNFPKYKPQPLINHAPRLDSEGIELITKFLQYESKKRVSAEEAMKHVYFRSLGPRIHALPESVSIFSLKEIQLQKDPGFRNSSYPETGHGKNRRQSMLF
Chain of Mitogen-activated protein kinase 8 (P45983 whole entry): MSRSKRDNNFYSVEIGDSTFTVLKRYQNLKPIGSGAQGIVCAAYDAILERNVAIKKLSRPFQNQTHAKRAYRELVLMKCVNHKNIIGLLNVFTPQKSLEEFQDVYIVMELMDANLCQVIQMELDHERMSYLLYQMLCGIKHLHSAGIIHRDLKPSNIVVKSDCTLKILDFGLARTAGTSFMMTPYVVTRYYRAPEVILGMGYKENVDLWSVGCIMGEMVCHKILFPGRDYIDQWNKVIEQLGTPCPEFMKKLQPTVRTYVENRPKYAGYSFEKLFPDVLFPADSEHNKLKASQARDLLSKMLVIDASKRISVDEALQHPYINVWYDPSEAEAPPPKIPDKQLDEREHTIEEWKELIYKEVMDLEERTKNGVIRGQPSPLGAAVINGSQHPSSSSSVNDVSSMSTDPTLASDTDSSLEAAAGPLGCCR
Chain of Mitogen-activated protein kinase 6 (Homo sapiens) (Q16659 whole entry): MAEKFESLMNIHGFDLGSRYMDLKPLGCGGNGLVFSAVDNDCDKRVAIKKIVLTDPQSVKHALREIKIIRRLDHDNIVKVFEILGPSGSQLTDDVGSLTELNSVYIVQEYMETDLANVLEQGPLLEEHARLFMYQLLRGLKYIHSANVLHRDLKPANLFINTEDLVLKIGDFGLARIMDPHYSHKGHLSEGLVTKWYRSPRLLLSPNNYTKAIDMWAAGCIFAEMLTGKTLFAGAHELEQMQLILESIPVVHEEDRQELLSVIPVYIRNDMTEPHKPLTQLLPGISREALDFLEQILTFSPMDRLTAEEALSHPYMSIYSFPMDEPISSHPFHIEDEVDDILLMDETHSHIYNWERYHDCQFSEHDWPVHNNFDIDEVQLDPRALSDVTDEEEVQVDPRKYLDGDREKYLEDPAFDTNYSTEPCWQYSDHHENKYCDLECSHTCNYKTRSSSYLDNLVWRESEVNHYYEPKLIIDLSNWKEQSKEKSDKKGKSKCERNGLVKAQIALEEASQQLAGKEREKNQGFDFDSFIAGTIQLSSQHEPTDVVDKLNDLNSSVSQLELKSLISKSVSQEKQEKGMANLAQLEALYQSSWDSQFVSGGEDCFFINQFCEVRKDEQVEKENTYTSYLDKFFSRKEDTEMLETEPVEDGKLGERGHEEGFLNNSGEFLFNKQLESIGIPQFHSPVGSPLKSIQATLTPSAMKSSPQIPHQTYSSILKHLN
Chain of Casein kinase I isoform alpha (P48729 2-337 limits assumed): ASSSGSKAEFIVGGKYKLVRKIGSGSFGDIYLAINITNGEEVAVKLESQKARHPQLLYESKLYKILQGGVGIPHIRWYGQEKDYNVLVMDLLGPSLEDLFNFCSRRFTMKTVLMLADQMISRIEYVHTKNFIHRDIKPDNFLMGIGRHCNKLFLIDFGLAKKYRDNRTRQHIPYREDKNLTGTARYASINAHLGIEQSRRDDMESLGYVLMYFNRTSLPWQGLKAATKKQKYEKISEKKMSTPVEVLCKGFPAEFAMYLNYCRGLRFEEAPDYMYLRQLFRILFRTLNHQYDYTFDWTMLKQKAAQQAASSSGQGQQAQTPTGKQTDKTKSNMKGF
Chain of Insulin receptor-related protein (Homo sapiens) (P14616 27-742 limits assumed): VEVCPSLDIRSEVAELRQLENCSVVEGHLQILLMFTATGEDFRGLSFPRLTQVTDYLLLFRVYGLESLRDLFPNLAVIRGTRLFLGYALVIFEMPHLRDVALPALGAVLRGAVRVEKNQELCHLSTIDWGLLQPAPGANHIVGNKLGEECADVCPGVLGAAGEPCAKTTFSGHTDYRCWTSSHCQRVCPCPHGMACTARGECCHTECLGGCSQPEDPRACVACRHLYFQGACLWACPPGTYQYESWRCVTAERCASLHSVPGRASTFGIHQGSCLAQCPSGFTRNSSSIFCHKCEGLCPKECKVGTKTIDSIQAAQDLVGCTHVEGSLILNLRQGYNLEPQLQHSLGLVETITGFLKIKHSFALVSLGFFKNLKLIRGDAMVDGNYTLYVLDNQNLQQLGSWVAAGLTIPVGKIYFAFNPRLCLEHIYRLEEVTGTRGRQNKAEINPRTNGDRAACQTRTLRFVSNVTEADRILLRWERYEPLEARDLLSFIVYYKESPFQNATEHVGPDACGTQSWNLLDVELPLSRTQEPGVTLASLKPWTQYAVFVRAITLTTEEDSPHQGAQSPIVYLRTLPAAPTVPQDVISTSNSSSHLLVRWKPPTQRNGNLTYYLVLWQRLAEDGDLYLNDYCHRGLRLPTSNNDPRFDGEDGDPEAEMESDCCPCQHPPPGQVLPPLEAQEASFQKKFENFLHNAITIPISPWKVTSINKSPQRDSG
Chain of Insulin receptor-related protein (Homo sapiens) (P14616 747-1297 limits assumed): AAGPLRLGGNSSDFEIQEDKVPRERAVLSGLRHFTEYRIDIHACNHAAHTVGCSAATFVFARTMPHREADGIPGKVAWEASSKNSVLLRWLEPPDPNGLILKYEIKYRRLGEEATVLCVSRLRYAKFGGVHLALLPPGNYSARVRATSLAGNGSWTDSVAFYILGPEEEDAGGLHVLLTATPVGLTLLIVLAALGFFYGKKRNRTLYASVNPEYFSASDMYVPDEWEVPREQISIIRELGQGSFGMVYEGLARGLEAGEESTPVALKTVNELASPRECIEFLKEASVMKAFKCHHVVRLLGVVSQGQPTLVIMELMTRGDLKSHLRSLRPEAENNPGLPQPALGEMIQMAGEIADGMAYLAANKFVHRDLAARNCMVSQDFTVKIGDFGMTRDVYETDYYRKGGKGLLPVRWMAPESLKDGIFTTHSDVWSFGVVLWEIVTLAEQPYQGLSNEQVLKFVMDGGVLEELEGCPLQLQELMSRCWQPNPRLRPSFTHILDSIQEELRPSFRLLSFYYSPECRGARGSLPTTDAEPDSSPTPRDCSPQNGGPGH

`CCN(CC)CCCCNc1ncc2cc(-c3cc(OC)cc(OC)c3)c(NC(=O)NC(C)(C)C)nc2n1` returned a % of control in [1] of 100%. In experiment [2], `Cc1cc(F)c(C(=O)Nc2cccc(-c3nncn3C(C)C)n2)cc1-n1cnc(C2CC2)c1` showed a % of control of 97%. `O=C(NOC[C@H](O)CO)c1ccc(F)c(F)c1Nc1ccc(I)cc1F` had a % of control in experiment [3] of 95%. `Cc1cc([C@@H](C)Nc2ccccc2C(=O)O)c2nc(N3CCOCC3)cc(=O)n2c1` [AZD-6482]: the % of control in experiment [4] is 100%; in [5], 63%. `Cc1cnc(Nc2ccc(F)cc2Cl)nc1-c1c[nH]c(C(=O)N[C@H](CO)c2cccc(Cl)c2)c1`: the % of inhibition in experiment [6] is 43%. The molecule `CC[C@@H]1[C@H](F)C(=O)N[C@@H]1COc1nccc2cc(C(N)=O)c(OC)cc12` [ZIMLOVISERTIB] yielded a % of inhibition in [7] of 0.284%. On to `C=CC(=O)Nc1cc(-n2c(=O)ccc3cnc4ccc(-c5ccc(NS(C)(=O)=O)cc5)cc4c32)ccc1C`, for which the % of control in experiment [8] (at 1 µM) and in [8] (at 10 µM) was 100% throughout. The molecule `CN(C)CCOc1ccc(-c2nc(-c3ccncc3)c(-c3ccc4c(c3)CC/C4=N\O)[nH]2)cc1` gave a % of control in experiment [9] of 92%. For the molecule `CC(C)(O)[C@H](F)CN1Cc2cc(NC(=O)c3cnn4cccnc34)c(N3CCOCC3)cc2C1=O`, the dTM in [10] is 1.9 K.

For the origin of these results see ChEMBL document CHEMBL5465560, “Selectivity Literature for EUbOPEN Chemogenomic Library” (2024).
